Measurements from paper PMC6738653, “The (p)ppGpp-binding GTPase Era promotes rRNA processing and cold adaptation in Staphylococcus aureus” (PLoS Genetics, 2019).

Columns and labels:
[1] = target: T1, Era (Staphylococcus aureus, UniProt Q2FY06); test: DRaCALA with […]-ppGpp; assay type: binding
T1 sequence (Q2FY06 1-299): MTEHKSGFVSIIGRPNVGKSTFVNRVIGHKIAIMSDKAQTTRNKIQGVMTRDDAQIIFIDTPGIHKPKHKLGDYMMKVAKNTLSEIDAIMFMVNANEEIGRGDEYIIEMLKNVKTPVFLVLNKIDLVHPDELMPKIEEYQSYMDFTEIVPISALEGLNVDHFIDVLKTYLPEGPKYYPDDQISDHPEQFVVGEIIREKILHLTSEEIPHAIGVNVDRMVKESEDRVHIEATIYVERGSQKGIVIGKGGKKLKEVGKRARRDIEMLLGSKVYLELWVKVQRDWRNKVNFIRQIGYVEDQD

[2] = target: Era fused to the SB (small bit of luciferase) (S. aureus); test: split reporter (BiFC, NanoBiT); split luciferase (SB and LB fusions from pAP118) in S. aureus LAC*; 100 ng/ml Atet for 90 min, normalised to OD600 0.1, Nano-Glo Luciferase Assay; positive only if increased over both negative controls

| Molecule | Kd [1] [µM] | fold increase in luciferase activity upon co-expression [2] [fold] |
| --- | --- | --- |
| Nc1nc2c(ncn2[C@@H]2O[C@H](COP(=O)(O)OP(=O)(O)O)[C@@H](OP(=O)(O)OP(=O)(O)O)[C@H]2O)c(=O)[nH]1 [ppGpp] | 3.1 ± 0.4 |  |
| full-length CshA fused to LB (large bit of luciferase) (natural protein) |  | 4 |
